Experiments:
Type in all cases: physicochemical
[1] = Suspension stability study: amoxicillin released in syrup; settings: 30° C.
Description: Samples of particles having each of the structure from Table 11 were suspended at a concentration of 250 mg amoxicillin per 5 ml in sucrose-based syrups adjusted to different pH's, the formulations of these syrups are set forth in Table 12, were stored at 30° C. and shaken daily. Samples were removed for testing at 1 hours, 1 day, 7 days and 14 days. Encapsulated drug and undissolved particulate matter were removed from the suspensions by filtration through a 35 micron filter. The clarified syrups were diluted with mobile phase of pH 5.0 potassium phosphate buffer containing 4% acetonitrile and filtered again through a 0.45 micron filter prior to analysis by high pressure liquid chromatography (HPLC). The method of quantitating the amount of amoxicillin released in the syrup solutions was adapted from the USP method for amoxicillin described on pages 2088-2089 of Supplement 1 in USP XXII-NF XVII.

[2] = Dissolution of amoxicillin particles in simulated gastric fluid
Description: (§1) The particles were subjected to dissolution tests in simulated gastric fluid (SGF) at pH 1.2 simulated intestinal fluid (SIF) at pH 6.8. The SGF and SIF were prepared per USP specs (USP XXII-NF XVII, pp. 1788-1789, 1990). Selected samples were also tested in SGF at pH 5.0, in pH 1.2 and 5.0 acids, and in pH 6.8 buffer. The pH 1.2 and 5.0 acids were prepared the same way as the corresponding SGF's, except no enzymes were added. Similarly, the pH 6.8 buffer was prepared the same way as the SIF, except no enzyme was added. The dissolution test was conducted using apparatus 2 assembly, as specified by USP (USP XXII-NF XVII, pp. 1578-1579, 1990). The nominal capacity of the dissolution vessel was 1000 mL. A peddle was used as the stirring element at a rotational speed of 50 rpm. The temperature was maintained at 37°+0.5° C. using a circulating water bath. The solution was sampled at 0.5, 1, and 2 hours for the test in SGF, and at 1, 3, and 6 hours for the test in SIF. A 10-mL aliquot was drawn at each sampling time through a 35 micron filter. […] The particles manufactured in this example were subjected to dissolution testing as described in Example 1. Selected particle samples were subjected to sequential dissolution testing as described in Example 2. […] The column was C-18. […] The detector was UV at 230 nm. A pure amoxicillin trihydrate (AMX1), which was calibrated with an USP reference standard, was used as the working standard. For dissolution sample analysis, the standard was dissolved in the mobile phase. For zein-coated drug analysis, both the sample and the standard were dissolved by mixing with 5 mL methanol for 2-5 minutes and then diluting with the mobile phase to the desired level.

[3] = Dissolution of amoxicillin particles in simulated intestinal fluid
Description: as §1

[4] = Suspension stability study: APAP released in syrup
Source text: The concept that stability in an aqueous suspension is primarily controlled by the exterior coating layer is supported by studies performed on acetaminophen (APAP). Acetaminophen was coated with various combinations of zein and Eudragit®. […] The composition of these syrups was similar to those used for the amoxicillin suspensions (compare Tables 12 and 14). A description of the manufacture of the APP27 particles is set forth above in Example 3; for APP32 particles in Example 3; for APP42 particles in Example 5; and for APP46 particles in Example 5. The particles identified in the tables as as "APAP" are uncoated acetaminophen. APP27 and 32 were suspended at 250 mg per 5 ml in a syrup at pH 8.1 and APP42 and 46 were each suspended at the same concentration in syrups at both pH 5.0 and 8.1 respectively. For analysis of samples in sucrose-based syrups, the samples were diluted 50-400 folds with water and then filtered through a 0.45 micron filter for HPLC analysis. The dilution was necessary for proper UW detection and to minimize the effect of matrix on column performance. The methanol content of the aqueous mobile phase was adjusted between 2 and 15%, pending the performance of the C-18 column used.

[5] = Dissolution of acetaminophen (APAP) particles in simulated gastric fluid (USP apparatus 2)
Description: (§2) The particles were subjected to dissolution tests in simulated gastric fluid (SGF) at pH 1.2 simulated intestinal fluid (SIF) at pH 6.8. The SGF and SIF were prepared per USP specs (USP XXII-NF XVII, pp. 1788-1789, 1990). Selected samples were also tested in SGF at pH 5.0, in pH 1.2 and 5.0 acids, and in pH 6.8 buffer. The pH 1.2 and 5.0 acids were prepared the same way as the corresponding SGF's, except no enzymes were added. Similarly, the pH 6.8 buffer was prepared the same way as the SIF, except no enzyme was added. The dissolution test was conducted using apparatus 2 assembly, as specified by USP (USP XXII-NF XVII, pp. 1578-1579, 1990). The nominal capacity of the dissolution vessel was 1000 mL. A peddle was used as the stirring element at a rotational speed of 50 rpm. The temperature was maintained at 37°+0.5° C. using a circulating water bath. The solution was sampled at 0.5, 1, and 2 hours for the test in SGF, and at 1, 3, and 6 hours for the test in SIF. A 10-mL aliquot was drawn at each sampling time through a 35 micron filter. The aliquot was then filtered again through a 0.45 micron filter for HPLC analysis to determine its drug content. An HPLC method was developed for the determination of acetaminophen in zein-coated powders and in dissolution samples from various media. Zein-coated powders were dissolved in methanol for analysis. An acetaminophen USP reference standard was used for the quantitation. For zein-coated drug analysis, the standard was prepared in methanol. For dissolution sample analysis, the standard was prepared in water. Each sample or standard solution was then filtered through a 0.45 micron filter for HPLC analysis. A C-18 column connected with an UV detector at 244 nm was used for the HPLC analysis. The mobile phase was water/methanol (85/15, v/v) at a flow rate of 1.0 mL/min. The analysis time was 18-20 min/injection.

[6] = Dissolution of acetaminophen (APAP) particles in simulated intestinal fluid (USP apparatus 2)
Description: as §2

## CC1(C)S[C@@H]2[C@H](NC(=O)[C@H](N)c3ccc(O)cc3)C(=O)N2[C@H]1C(=O)O [AMX1, amoxicillin trihydrate]
[1]; Syrup at pH 5.0, 1 Day
  Percent Amoxicillin Released in Syrup: 9.3%
[1]; Syrup at pH 5.0, 1 Hr
  Percent Amoxicillin Released in Syrup: 7.4%
[1]; Syrup at pH 5.0, 7 Days
  Percent Amoxicillin Released in Syrup: 11.3%
[1]; Syrup at pH 5.0, 14 Days
  Percent Amoxicillin Released in Syrup: 9.0%
[1]; Syrup at pH 6.5, 1 Day
  Percent Amoxicillin Released in Syrup: 9.6%
[1]; Syrup at pH 6.5, 1 Hr
  Percent Amoxicillin Released in Syrup: 8.6%
[1]; Syrup at pH 6.5, 7 Days
  Percent Amoxicillin Released in Syrup: 14.6%
[1]; Syrup at pH 6.5, 14 Days
  Percent Amoxicillin Released in Syrup: 10.9%
[1]; Syrup at pH 8.5, 1 Day
  Percent Amoxicillin Released in Syrup: 2.8%
[1]; Syrup at pH 8.5, 1 Hr
  Percent Amoxicillin Released in Syrup: 19.5%
[1]; Syrup at pH 8.5, 7 Days
  Percent Amoxicillin Released in Syrup: 9.6%
[1]; Syrup at pH 8.5, 14 Days
  Percent Amoxicillin Released in Syrup: 5.7%

## CC1(C)S[C@@H]2[C@H](NC(=O)[C@H](N)c3ccc(O)cc3)C(=O)N2[C@H]1C(=O)O [AMX23, amoxicillin]
[2]; In SGF, pH 1.2, 0.5 hr
  Cumulative % Release of Amoxicillin, 0.5 hr: 53%
[2]; In SGF, pH 1.2, 1 hr
  Cumulative % Release of Amoxicillin, 1 hr: 45%
[2]; In SGF, pH 1.2, 2 hr
  Cumulative % Release of Amoxicillin, 2 hr: 36%
[2]; SGF pH 1.2
  release of amoxicillin in simulated gastric fluid (in words): rapid release
[3]; In SIF, pH 6.8, 1 hr
  Cumulative % Release of Amoxicillin, 1 hr: 83%
[3]; In SIF, pH 6.8, 3 hr
  Cumulative % Release of Amoxicillin, 3 hr: 91%
[3]; In SIF, pH 6.8, 6 hr
  Cumulative % Release of Amoxicillin, 6 hr: 93%
[3]; SIF pH 6.8
  release of amoxicillin in simulated intestinal fluid (in words): quite rapidly

## CC(=O)Nc1ccc(O)cc1 [APAP, acetaminophen]
[4]; Table 15, syrup at pH 8.1, 1 Hr
  Percent APAP Released in Syrup: 20.0%
[4]; Table 15, syrup at pH 8.1, 28 Days
  Percent APAP Released in Syrup: 23.0%
[4]; Table 16, syrup pH 5.0, 1 Day
  Percent APAP Released in Syrup: 31.9%
[4]; Table 16, syrup pH 5.0, 1 Hr
  Percent APAP Released in Syrup: 20.2%
[4]; Table 16, syrup pH 5.0, 7 Days
  Percent APAP Released in Syrup: 26.5%
[4]; Table 16, syrup pH 5.0, 14 Days
  Percent APAP Released in Syrup: 24.9%
[4]; Table 16, syrup pH 8.1, 1 Day
  Percent APAP Released in Syrup: 27.5%
[4]; Table 16, syrup pH 8.1, 1 Hr
  Percent APAP Released in Syrup: 7.7%
[4]; Table 16, syrup pH 8.1, 7 Days
  Percent APAP Released in Syrup: 29.8%
[4]; Table 16, syrup pH 8.1, 14 Days
  Percent APAP Released in Syrup: 28.0%

## CC(=O)Nc1ccc(O)cc1 [APP21, Acetaminophen]
[5]; In SGF, pH 1.2, 0.5 hr
  Cumulative % Release of APAP, 0.5 hr: 97%
[5]; In SGF, pH 1.2, 1 hr
  Cumulative % Release of APAP, 1 hr: 97%
[5]; In SGF, pH 1.2, 2 hr
  Cumulative % Release of APAP, 2 hr: 98%
[5]; SGF pH 1.2
  release of APAP in simulated gastric fluid (in words): dissolved in gastric fluid very quickly
[6]; In SIF, pH 6.8, 1 hr
  Cumulative % Release of APAP, 1 hr: 98%
[6]; In SIF, pH 6.8, 3 hr
  Cumulative % Release of APAP, 3 hr: 101%
[6]; In SIF, pH 6.8, 6 hr
  Cumulative % Release of APAP, 6 hr: 102%
[6]; SIF pH 6.8
  release of APAP in simulated intestinal fluid (in words): dissolved fairly rapidly
